In series [1] the target is T1, HCMV polymerase (Human cytomegalovirus, UniProt P08546).
T1 construct: made in house; host or cells: recombinant baculovirus-infected SF-9 cells
The series is described as follows: HCMV polymerase scintillation proximity assay (SPA). Format: biochemical. The following applies: 3H-dTTP incorporation. On the procedure:
(§1) The HCMV polymerase assay is performed using a scintillation proximity assay (SPA) as described in several references, such as N.D. Cook, et al., Pharmaceutical Manufacturing International, pages 49-53 (1992); K. Takeuchi, Laboratory Practice, September issue (1992); U.S. Pat. No. 4,568,649 (1986); which are incorporated by reference herein. Reactions are performed in 96-well plates. The assay is conducted in 100 μl volume with 5.4 mM HEPES (pH 7.5), 11.7 mM KCl, 4.5 mM MgCl2, 0.36 mg/ml BSA, and 90 nM ^3H-dTTP. Assays are run with and without CHAPS, (3-[(3-cholamidopropyl)-dimethylammonio]-1-propane-sulfonate) at a final concentration of 2 mM. HCMV polymerase is diluted in enzyme dilution buffer containing 50% glycerol, 250 mM NaCl, 10 mM HEPES (pH 7.5), 100 μg/ml BSA, and 0.01% sodium azide. The HCMV polymerase, which is expressed in recombinant baculovirus-infected SF-9 cells and purified according to literature procedures, is added at 10% (or 10 μl) of the final reaction volume, i.e., […]. Compounds are diluted in 50% DMSO and 10 μl are added to each well. Control wells contain an equivalent concentration of DMSO. Unless noted otherwise, reactions are initiated via the addition of 6 nM biotinylated poly(dA)-oligo(dT) template/primer to reaction mixtures containing the enzyme, substrate, and compounds of interest. Plates are incubated in a 25 C or 37 C H2O bath and terminated via the addition of 40 μl/reaction of 0.5 M EDTA (pH 8) per well. Reactions are terminated within the time-frame during which substrate incorporation is linear and varied depending upon the enzyme and conditions used, i.e., 30 min. for HCMV polymerase. Ten μl of streptavidin-SPA beads (20 mg/ml in PBS/10% glycerol) are added following termination of the reaction. Plates are incubated 10 min. at 37 C, then equilibrated to room temperature, and counted on a Packard Topcount. Linear regressions are performed and IC50's are calculated using computer software. A modified version of the above HCMV polymerase assay is performed as described above, but with the following changes: Compounds are diluted in 100% DMSO until final dilution into assay buffer. In the previous assay, compounds are diluted in 50% DMSO. 4.5 mM dithiotherotol (DTT) is added to the polymerase buffer.
In general terms: In a scintillation proximity assay essentially only radioactivity close to the scintillant gives light.

Series [2] addresses VZV polymerase (Varicella-zoster virus, UniProt P09252). The series is described as follows: VZV polymerase assay (Table 1). Format: biochemical. How it is done: [Worded in the source for another target; this target is reported under the same test.] as §1
Series [3] deals with HSV polymerase (Human herpesvirus 1, UniProt P04293). Kind of series: HSV polymerase assay (Table 1). Format: biochemical. On the procedure:
[Worded in the source for another target; this target is reported under the same test.] as §1

Sequence of VZV polymerase (P09252 whole entry): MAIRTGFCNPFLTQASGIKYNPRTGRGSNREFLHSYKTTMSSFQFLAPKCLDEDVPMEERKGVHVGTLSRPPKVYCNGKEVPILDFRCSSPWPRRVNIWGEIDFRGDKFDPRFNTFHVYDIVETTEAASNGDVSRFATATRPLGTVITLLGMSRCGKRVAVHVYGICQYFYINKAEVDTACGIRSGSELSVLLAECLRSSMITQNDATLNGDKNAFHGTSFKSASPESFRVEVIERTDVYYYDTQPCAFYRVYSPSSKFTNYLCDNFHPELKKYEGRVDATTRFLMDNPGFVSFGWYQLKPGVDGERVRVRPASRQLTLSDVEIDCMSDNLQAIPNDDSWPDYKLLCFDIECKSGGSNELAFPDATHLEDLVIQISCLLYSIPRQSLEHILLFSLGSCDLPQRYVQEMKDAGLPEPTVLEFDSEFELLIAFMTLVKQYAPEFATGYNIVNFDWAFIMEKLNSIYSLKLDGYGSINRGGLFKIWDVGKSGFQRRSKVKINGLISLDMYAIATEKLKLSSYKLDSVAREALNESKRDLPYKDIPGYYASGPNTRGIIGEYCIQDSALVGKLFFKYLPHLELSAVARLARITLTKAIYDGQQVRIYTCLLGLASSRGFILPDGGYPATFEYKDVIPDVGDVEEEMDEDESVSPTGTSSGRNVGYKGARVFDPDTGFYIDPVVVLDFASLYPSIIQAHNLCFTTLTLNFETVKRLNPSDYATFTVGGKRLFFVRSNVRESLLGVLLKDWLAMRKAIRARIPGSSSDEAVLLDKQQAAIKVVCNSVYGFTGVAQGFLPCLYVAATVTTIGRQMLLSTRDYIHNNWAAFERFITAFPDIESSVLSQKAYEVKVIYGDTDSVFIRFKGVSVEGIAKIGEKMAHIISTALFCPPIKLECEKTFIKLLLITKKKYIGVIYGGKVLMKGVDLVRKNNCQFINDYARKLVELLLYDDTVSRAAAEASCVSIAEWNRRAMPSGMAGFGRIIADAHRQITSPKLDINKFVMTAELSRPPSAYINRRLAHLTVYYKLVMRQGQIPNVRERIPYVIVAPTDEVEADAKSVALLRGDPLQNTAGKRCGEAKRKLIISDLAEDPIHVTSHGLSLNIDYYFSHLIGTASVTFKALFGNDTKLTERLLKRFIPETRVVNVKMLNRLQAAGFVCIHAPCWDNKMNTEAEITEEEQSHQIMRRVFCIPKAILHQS
Sequence of HSV polymerase (P04293 whole entry): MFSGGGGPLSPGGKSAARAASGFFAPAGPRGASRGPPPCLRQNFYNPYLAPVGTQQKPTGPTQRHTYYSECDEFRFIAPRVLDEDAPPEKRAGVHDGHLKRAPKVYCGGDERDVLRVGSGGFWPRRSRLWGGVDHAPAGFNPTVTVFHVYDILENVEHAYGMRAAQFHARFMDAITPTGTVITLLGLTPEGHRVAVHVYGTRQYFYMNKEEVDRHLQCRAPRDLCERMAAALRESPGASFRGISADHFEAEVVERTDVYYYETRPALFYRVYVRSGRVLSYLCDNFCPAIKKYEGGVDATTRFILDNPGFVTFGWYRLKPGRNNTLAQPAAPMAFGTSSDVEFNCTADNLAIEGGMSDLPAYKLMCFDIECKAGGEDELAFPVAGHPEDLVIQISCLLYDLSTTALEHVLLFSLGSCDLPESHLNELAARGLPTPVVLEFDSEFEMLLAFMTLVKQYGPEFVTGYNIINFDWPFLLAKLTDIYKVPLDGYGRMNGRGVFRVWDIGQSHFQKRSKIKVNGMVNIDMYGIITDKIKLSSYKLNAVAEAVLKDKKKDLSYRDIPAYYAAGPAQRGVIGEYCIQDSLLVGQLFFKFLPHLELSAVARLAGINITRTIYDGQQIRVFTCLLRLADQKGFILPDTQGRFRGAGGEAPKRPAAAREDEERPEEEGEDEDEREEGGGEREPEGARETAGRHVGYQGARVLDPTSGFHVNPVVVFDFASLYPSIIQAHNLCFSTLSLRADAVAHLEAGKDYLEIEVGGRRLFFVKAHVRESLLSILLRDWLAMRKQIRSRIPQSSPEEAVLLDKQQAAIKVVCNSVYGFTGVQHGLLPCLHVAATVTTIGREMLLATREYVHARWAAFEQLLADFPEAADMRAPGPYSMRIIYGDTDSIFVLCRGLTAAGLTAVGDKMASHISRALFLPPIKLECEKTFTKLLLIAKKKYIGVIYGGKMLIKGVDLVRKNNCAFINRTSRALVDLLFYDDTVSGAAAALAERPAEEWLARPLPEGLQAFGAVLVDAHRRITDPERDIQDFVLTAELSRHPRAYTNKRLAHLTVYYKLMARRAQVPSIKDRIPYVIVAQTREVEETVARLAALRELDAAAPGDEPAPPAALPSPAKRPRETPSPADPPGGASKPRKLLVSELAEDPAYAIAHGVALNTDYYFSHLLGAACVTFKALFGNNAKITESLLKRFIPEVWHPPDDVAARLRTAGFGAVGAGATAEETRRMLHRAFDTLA
T1 sequence (P08546 whole entry): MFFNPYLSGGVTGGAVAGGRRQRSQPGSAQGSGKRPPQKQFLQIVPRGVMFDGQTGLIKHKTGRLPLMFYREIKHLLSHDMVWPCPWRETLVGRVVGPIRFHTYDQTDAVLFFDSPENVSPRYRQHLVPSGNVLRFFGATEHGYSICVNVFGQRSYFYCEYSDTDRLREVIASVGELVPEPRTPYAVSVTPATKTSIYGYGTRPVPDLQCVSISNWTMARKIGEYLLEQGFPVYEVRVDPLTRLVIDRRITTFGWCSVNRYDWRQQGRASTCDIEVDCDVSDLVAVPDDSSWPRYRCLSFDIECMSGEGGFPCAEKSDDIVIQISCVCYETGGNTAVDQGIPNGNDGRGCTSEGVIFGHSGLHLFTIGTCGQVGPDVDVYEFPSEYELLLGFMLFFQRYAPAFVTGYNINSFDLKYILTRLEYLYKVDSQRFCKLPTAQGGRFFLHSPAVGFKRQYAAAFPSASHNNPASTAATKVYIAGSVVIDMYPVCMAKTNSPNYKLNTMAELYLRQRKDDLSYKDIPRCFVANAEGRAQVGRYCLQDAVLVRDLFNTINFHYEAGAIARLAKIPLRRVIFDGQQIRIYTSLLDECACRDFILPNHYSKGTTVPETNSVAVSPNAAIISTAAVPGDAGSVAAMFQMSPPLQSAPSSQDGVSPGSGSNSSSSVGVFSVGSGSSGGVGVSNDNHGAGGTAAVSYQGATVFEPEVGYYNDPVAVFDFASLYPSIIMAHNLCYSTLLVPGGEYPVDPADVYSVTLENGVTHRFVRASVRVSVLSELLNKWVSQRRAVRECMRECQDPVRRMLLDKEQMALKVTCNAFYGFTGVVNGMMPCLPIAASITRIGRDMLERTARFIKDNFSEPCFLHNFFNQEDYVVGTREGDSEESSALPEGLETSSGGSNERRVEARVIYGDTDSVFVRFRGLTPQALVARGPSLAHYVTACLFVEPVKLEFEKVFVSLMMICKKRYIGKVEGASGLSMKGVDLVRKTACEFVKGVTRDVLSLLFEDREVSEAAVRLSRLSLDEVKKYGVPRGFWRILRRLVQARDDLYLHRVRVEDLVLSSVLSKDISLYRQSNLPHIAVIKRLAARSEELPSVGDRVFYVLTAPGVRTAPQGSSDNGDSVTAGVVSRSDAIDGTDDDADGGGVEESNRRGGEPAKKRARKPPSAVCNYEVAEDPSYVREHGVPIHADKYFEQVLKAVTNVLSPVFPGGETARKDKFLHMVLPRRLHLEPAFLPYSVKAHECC

For the compound `O=C(NCc1ccc(Cl)cc1)c1cn(-c2cccc(CCCO)c2)c2ccc(CN3CCOCC3)cc2c1=O` [Example 25, N-(4-Chlorobenzyl)-1-[3-(3-hydroxypropyl)phenyl]-6-(4-morpholinylmethyl)-4-oxo-1,4-dihydro-3-quinolinecarboxamide], the melting point is 115 to 118 °C. In series [1], this compound registered an IC50 of 1.08 µM. Also, it took 0.48 µM to reach half-maximal inhibition in series [2] (IC50). In series [3], this compound displayed an IC50 of 0.98 µM.
For the compound `O=C(NCc1ccc(Cl)cc1)c1cn(-c2cccc(CO)c2)c2ccc(CN3CCOCC3)cc2c1=O` [Example 17, N-(4-Chlorobenzyl)-1-(3-(hydroxymethyl)phenyl)-6-(4-morpholinylmethyl)-4-oxo-1,4-dihydro-3-quinolinecarboxamide], the melting point was in the range of 119 to 121 °C. The same compound had an IC50 in series [1] of 0.74 µM. Also, 0.31 µM corresponded to half-maximal inhibition in series [2] (IC50). The IC50 in series [3] was 0.44 µM.
Taken in the same sequence, the figures for `O=C(NCc1ccc(Cl)cc1)c1cn(-c2cccc(C#CCO)c2)c2ccc(CN3CCOCC3)cc2c1=O` [Example 20, N-(4-Chlorobenzyl)-1-(3-(3-hydroxy-1-propynyl)phenyl)-6-(4-morpholinylmethyl)-4-oxo-1,4-dihydro-3-quinolinecarboxamide] were 145 to 148 °C, 0.57 µM, 0.29 µM and 0.59 µM.

As a reminder, the IC50 is the concentration that inhibits the measured activity by half. The low end stands for greater potency in that assay, the high end for weaker potency in that assay. As a reminder, the melting point is the temperature of the solid-liquid transition.
